Literature values, collected in paper PMC9409351, “Differential Ganglioside and Cholesterol Depletion by Various Cyclodextrin Derivatives and Their Effect on Synaptosomal Glutamate Release” (International Journal of Molecular Sciences, 2022).

What was measured:
cerebellar granule cells = tested on: cerebellar granule cells; design: method as in PMID 12897192; details: in addition to cholesterol extraction; cited from earlier work
[1] = tested on: cell model of GM1 gangliosidosis; design: method as in doi:10.1007/s10847-018-0835-8; details: immunofluorescence staining; cited from earlier work

Molecule | Sphingomyelin and GSL levels after treatment (cerebellar granule cells) | Lysosomal accumulation of GM1 [1]
methylated beta-cyclodextrins [MBCD] | reduction in the sphingomyelin and GSL levels | –
COCC1OC2OC3C(COC)OC(OC4C(COC)OC(OC5C(COC)OC(OC6C(COC)OC(OC7C(COC)OC(OC1C(O)C2OC)C(OC)C7O)C(OC)C6O)C(OC)C5O)C(OC)C4O)C(OC)C3O (stereo not drawn) [DIMEA, hexakis(2,6-di-O-methyl)-alpha-cyclodextrin] | – | reduced lysosomal accumulation of GM1
